In ChEMBL document CHEMBL6083186, “Chromenone: An emerging scaffold in anti-Alzheimer drug discovery” (Bioorg Med Chem Lett, 2024) one finds IC50 and Ratio IC50 data, which are given here for 25 compounds.

Assay [1] concerns the target T1, Cholinesterase (Homo sapiens, UniProt P06276). Description: Inhibition of BChE (unknown origin) by Ellman's method. Background: DTNB colorimetry detects thiols as they appear.
The target in assay [2] is T2, Acetylcholinesterase (Homo sapiens, UniProt P22303). Description: Inhibition of AChE (unknown origin) by Ellman's method.
T2 sequence (P22303 whole entry): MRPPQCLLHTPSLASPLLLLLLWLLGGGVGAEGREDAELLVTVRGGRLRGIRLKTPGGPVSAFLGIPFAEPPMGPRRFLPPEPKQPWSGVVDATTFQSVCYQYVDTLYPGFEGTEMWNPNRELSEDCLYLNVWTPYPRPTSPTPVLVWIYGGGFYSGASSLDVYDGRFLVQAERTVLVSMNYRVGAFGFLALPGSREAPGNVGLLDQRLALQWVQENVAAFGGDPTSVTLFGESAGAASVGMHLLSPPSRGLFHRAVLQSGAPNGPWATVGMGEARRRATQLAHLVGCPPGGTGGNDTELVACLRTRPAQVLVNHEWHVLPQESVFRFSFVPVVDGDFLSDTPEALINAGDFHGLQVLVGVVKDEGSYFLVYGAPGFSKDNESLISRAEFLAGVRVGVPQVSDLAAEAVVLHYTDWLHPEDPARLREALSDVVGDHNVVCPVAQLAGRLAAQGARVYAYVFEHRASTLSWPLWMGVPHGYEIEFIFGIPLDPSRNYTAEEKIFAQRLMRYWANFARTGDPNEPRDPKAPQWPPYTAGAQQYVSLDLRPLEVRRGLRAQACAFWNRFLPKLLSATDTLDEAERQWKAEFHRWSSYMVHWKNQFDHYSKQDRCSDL
Assay [3] deals with T3, Beta-secretase 1 (Homo sapiens, UniProt P56817). Nature of the assay: Inhibition of BACE1 (unknown origin) using Rh-EVNLDAEFK-Quencher as substrate incubated for 1 hr by FRET assay.
T3 sequence (P56817 whole entry): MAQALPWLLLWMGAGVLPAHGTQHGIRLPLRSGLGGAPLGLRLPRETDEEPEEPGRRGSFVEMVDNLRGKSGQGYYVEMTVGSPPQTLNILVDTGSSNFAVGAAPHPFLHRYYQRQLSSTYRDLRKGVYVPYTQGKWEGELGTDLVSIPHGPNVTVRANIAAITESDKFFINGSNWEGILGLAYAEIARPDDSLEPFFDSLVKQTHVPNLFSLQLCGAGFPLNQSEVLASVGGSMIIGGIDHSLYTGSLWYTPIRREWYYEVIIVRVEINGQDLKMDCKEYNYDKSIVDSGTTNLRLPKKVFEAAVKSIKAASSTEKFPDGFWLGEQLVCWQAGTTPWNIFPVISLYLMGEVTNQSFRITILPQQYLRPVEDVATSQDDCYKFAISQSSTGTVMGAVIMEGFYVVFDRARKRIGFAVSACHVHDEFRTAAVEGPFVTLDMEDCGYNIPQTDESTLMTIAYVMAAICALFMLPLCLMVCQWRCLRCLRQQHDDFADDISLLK
Assay [4] has as its target T4, Cholinesterase (Equus caballus, UniProt P81908). Nature of the assay: Inhibition of equine BuChE.
The target of assay [5] is T4, Cholinesterase. Nature of the assay: Inhibition of equine BChE using BTCh as substrate incubated for 15 mins by Ellmans method.
The species entered for assay [6] is Homo sapiens. Description: Selectivity index, ratio of IC50 for human BuChE to IC50 for human AChE.
In assay [7] the target is T2, Acetylcholinesterase. Nature of the assay: Inhibition of human AChE using […] as substrate incubated for 20 mins by DTNB reagent based Ellman's method.
The target in assay [8] is T3, Beta-secretase 1. Nature of the assay: Inhibition of BACE1 (unknown origin) by FRET assay.
The target in assay [9] is Acetylcholinesterase (Electrophorus electricus, UniProt O42275). Description: Inhibition of electric eel AChE.
Sequence of Acetylcholinesterase (Electrophorus electricus, UniProt O42275) (O42275 whole entry): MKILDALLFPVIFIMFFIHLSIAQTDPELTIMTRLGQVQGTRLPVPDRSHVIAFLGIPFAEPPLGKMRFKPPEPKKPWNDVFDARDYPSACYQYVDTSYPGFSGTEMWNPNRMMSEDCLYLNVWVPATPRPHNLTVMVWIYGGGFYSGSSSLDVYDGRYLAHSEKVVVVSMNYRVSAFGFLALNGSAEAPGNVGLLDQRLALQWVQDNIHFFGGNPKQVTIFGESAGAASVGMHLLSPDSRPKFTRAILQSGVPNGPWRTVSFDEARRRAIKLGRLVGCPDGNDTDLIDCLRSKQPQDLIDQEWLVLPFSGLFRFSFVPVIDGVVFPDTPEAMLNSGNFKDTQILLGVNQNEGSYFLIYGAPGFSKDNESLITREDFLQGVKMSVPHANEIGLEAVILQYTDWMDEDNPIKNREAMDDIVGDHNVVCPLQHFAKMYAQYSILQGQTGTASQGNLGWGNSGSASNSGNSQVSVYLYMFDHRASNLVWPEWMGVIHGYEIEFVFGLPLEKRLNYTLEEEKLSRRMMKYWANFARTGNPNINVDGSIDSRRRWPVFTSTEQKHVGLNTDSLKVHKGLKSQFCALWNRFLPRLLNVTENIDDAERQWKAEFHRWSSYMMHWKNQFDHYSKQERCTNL
Assay [10] in a line: Antioxidant activity assessed as DPPH radical scavenging activity. It counts as functional. On the technique in general: DPPH is a stable violet radical that fades when it is reduced.
The target in assay [11] is T3, Beta-secretase 1. Nature of the assay: Inhibition of BACE1 (unknown origin).
The target of assay [12] is T4, Cholinesterase. Nature of the assay: Inhibition of equine serum BChE using butyrylthiocholine iodide as substrate by DTNB reagent based Ellman's method.
The target in assay [13] is T2, Acetylcholinesterase. Description: Inhibition of AChE (unknown origin).
Assay [14] deals with T2, Acetylcholinesterase. Nature of the assay: Inhibition of human recombinant AChE using acetylthiocholine iodide as substrate preincubated for 15 mins followed by substrate addition measured for 10 mins DTNB reagent based Ellman's method.
Assay [15] has as its target T5, Amine oxidase [flavin-containing] B (Homo sapiens, UniProt P27338).
T5 sequence (P27338 whole entry): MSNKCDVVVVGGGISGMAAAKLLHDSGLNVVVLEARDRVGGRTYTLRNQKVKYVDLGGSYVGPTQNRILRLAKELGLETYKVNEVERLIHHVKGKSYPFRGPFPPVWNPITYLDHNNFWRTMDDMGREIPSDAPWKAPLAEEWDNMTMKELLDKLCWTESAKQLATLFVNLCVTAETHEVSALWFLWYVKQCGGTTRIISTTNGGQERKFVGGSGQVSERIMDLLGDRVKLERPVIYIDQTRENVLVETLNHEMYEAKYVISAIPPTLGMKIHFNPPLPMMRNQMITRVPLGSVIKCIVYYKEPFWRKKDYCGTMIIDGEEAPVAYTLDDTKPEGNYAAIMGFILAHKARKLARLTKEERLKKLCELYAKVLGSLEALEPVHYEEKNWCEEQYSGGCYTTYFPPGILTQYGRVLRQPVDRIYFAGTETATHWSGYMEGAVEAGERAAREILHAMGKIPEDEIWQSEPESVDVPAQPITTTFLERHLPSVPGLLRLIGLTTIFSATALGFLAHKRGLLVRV
Description: Inhibition of MAO-B (unknown origin).

Assay [16] has as its target T1, Cholinesterase. Nature of the assay: Inhibition of BuChE (unknown origin).
Assay [17] addresses T1, Cholinesterase. Nature of the assay: Inhibition of human BuChE using butyrylthiocholine iodide as substrate pre-incubated for 10 mins followed by substrate addition and measured for 15 mins by Ellman's method.

Converted amounts (≈) assume the structure as drawn.

T1 sequence (P06276 whole entry): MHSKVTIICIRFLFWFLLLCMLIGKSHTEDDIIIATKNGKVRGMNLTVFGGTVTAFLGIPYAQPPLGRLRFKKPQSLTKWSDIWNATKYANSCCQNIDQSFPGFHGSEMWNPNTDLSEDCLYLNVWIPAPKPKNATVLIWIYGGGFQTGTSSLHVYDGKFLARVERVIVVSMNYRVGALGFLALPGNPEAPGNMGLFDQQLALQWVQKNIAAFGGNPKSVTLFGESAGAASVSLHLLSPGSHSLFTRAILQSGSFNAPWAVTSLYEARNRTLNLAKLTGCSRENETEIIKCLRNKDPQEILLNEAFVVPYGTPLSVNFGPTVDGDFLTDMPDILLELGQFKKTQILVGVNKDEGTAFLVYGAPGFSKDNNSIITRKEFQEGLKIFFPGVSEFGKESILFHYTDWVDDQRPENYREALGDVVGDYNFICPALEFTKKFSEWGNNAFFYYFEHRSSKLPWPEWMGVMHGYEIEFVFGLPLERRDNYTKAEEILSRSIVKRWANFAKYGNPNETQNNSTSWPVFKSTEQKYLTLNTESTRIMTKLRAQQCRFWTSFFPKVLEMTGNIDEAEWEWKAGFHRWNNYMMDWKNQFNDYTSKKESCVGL
T4 sequence (P81908 whole entry): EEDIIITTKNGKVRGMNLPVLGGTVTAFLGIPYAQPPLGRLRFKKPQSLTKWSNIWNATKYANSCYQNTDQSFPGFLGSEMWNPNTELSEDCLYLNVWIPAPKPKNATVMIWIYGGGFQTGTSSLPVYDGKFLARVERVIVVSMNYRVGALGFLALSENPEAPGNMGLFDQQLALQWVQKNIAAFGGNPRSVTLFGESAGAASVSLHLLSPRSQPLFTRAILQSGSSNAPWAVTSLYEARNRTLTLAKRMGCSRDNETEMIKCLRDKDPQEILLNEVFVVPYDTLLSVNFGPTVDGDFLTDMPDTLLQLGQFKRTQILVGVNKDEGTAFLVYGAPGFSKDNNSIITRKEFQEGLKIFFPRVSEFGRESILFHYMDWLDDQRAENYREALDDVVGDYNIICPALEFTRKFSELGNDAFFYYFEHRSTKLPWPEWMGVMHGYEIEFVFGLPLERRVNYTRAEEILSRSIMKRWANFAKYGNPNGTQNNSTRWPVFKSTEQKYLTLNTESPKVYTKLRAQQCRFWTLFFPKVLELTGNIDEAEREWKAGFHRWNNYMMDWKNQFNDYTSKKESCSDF

The IC50 is the concentration that gives 50% inhibition. For the compound `COc1cc2ccc(=O)oc2cc1O` [SCOPOLETIN], the 50% inhibitory concentration (IC50) in assay [1] is 159 µM; in assay [2], 154 µM; in assay [3], 159 µM.

In assay [4], `O=c1oc2c(O)cccc2cc1-c1ccccc1` displayed a 50% inhibitory concentration (IC50) of 13.1 µM.

As for `COc1cc2cc(-c3ccc(CN(C)Cc4ccccc4)cc3)c(=O)oc2cc1OC`, in [5], 48.9 µM corresponded to half-maximal inhibition (IC50).

Take `Cc1cc(=O)oc2cc(OCc3nnc(-c4cc(O)c(O)c(O)c4)o3)ccc12`: in assay [6], the Ratio IC50 worked out at 1.65. The compound further had a half-maximal inhibitory concentration (IC50) in [7] of 28.7 µM.

`COc1cccc2cc(C(=O)NCc3cnnn3Cc3ccccc3Cl)c(=O)oc12`: the results for the IC50 in assay [8] and in assay [9] were 96.1 µM and 15.4 µM, respectively.

As for `O=c1c(O)c(-c2ccc(O)c(O)c2)oc2cc(O)cc(O)c12` [QUERCETIN], the IC50 in assay [10] is 3.18 µg/mL (≈ 10.5 µM).

For the compound `COc1cc(Cn2cc(COc3ccc4ccc(=O)oc4c3C(C)=O)nn2)cc(OC)c1`, the half-maximal inhibitory concentration (IC50) came to 10.7 µM in [11], 3.26 µM in [1] and 2.57 µM in assay [2].

Regarding `O=c1ccc2ccc(O)cc2o1` [UMBELLIFERONE], the results for the IC50 in assay [1] and in assay [3] were 105 µM and 143 µM, respectively.

`O=c1ccc2cc(O)c(O)cc2o1` [ESCULETIN]: the IC50 in assay [1] was 8.66 µM; in assay [2] it was 6.13 µM.

For the compound `O=C(NCCCN1CCOCC1)c1cc2ccc(OCc3cn(Cc4cccc(Cl)c4Cl)nn3)cc2oc1=O`, the figures for the concentration for half-maximal inhibition (IC50) in [11] and in assay [12] were 21.1 µM and 1.71 µM, respectively.

The compound `COc1cccc2cc(-c3ccc(NC(=O)c4ccc(CCl)cc4)cc3)c(=O)oc12` gave an IC50 in [13] of 0.091 µM.

For the compound `Cc1c(C)c2c(c(C)c1O)CCC(C)(C(=O)O)O2` (stereo not drawn) [TROLOX], the IC50 in assay [10] came out at 12.54 µg/mL (≈ 50.1 µM).

For `COc1cc2oc(=O)ccc2cc1O` [ISOSCOPOLETIN], the results for the half-maximal inhibitory concentration (IC50) in [1], in assay [2] and in assay [3] were 110 µM, 174 µM and 146 µM, respectively.

Regarding `O=C1O[C@H]([C@@H](O)CO)C(O)=C1O` [ASCORBIC ACID], the IC50 in [10] was 10.52 µg/mL (≈ 59.7 µM).

With `O=C(O)c1cc2ccc(=O)oc2cc1O`, the 50% inhibitory concentration (IC50) came out at 27.2 µM in assay [1], 145 µM in [2] and 0.34 µM in assay [3].

As for `CC(C)c1cc2cc3ccc(=O)oc3cc2o1`, the half-inhibitory concentration (IC50) in assay [14] was determined as 86.5 µM.

With `O=C1CCOc2ccc(OCCN3CCCCCC3)cc21`, the half-inhibitory concentration (IC50) in assay [15] stood at 1.11 µM; in assay [16] it was 13.7 µM; in assay [13] it was 4.88 µM.

Compound `COc1cc(OC)c2c(=O)c(OCCCCn3cc(CN4C(=O)C(=O)c5ccccc54)nn3)c(-c3ccc(OC)c(OC)c3)oc2c1` had an IC50 in assay [1] of 11.2 µM.

For the compound `Cc1cc(=O)oc2cc(OCc3nnc(-c4ccc(O)c(O)c4)o3)ccc12`, the Ratio IC50 in assay [6] amounted to 1.55. Besides, it took 29.6 µM to reach half-maximal inhibition in assay [7] (IC50).

In [2], `Cc1cc(=O)oc2cc(OCC(=O)N/N=C\c3ccc(C(=O)O)cc3)ccc12` displayed a 50% inhibitory concentration (IC50) of 0.802 µM.

Regarding `O=c1oc2ccccc2cc1-c1ccc(Br)cc1`, the half-maximal inhibitory concentration (IC50) in assay [13] was 19.2 µM.

On to `COc1cccc2cc(-c3ccc(NC(=O)c4ccc(F)cc4)cc3)c(=O)oc12`, for which the IC50 in [4] turned out to be 0.55 µM.

With `Cc1cc(=O)oc2cc(OCc3nnc(Cc4cccc5c4OCO5)o3)ccc12`, half-maximal inhibition in [17] (IC50) required 24 µM.

In [13], `O=C1OC2=C(O)C(O)=CCC2C=C1c1ccc(O)c(O)c1` (stereo not drawn) showed an IC50 of 3.04 µM.

As for `COc1ccc2ccc(=O)oc2c1` [HERNIARIN], the 50% inhibitory concentration (IC50) stood at 119 µM in assay [1], 104 µM in assay [2] and 172 µM in assay [3].
